According to patent publication US6790621B2 (Washington State University Research Foundation, priority 2001, dated 2004):

Experiments:
[1] = system: Collies; conditions: cited from earlier work
[2] = system: Collies; assay: Loperamide neurotoxicity in Collies; assay type: in vivo, dogs; conditions: one Collie of the study, homozygous for the mutant allele, treated with an appropriate dose as a puppy
Text: Determination of the genotype of Collies is important clinically for several reasons. […] The dog tested homozygous for the mutant allele.

[3] = system: Collies; conditions: Collies vs Beagles, one study; cited from earlier work
[4] = system: Collies; assay: Ivermectin sensitivity (signs of neurotoxicosis) in Collies by mdr1 genotype; assay type: in vivo, dogs; conditions: oral 120 μg/kg
Procedure: Blood samples (8 ml) were obtained by jugular venipuncture from each of 13 clinically healthy Collies (Wil-O-Lane Kennels, Allegan, Mich.). […] Each dog was identified by an ear tattoo and housed in a run measuring 4×8 feet with metal walls and a raised, coated, metal screen floor. Facilities exceeded the minimal requirement specified by USDA guidelines.
We took advantage of a well-defined population of ivermectin-sensitive and non-sensitive Collies (Paul et al., Amer. J. Vet. Res. 61:482-483, 2000: Fassler et al., J. Am. Vet. Med. Assoc. 199:457-460, 1991). […] Clinical signs of neurotoxicity that were evaluated include apparent depression, ataxia, mydriasis, salivation, or drooling (Paul et al., Amer. J. Vet. Res. 61:482-483, 2000). Semi-quantitative reverse transcriptase PCR analysis was conducted on RNA isolated from ivermectin-sensitive and non-sensitive Collies to determine if mdr1 expression is lower in sensitive Collies than in non-sensitive Collies. Amplification of a 229-bp product of the canine glyceraldehyde 3-phosphate dehydrogenase (GAPDH) gene was used as an internal standard to control for variability in reverse transcriptase and PCR reactions.

In the case of CN(C)C(=O)C(CCN1CCC(O)(c2ccc(Cl)cc2)CC1)(c1ccccc1)c1ccccc1 [loperamide, Loperamide], the “concentration in brain tissue” value ([1]; affected Collies) is given as “high concentrations in brain tissue”, the “neurotoxicity in Collies” value ([1]; doses routinely used in other breeds) is given as “cause neurotoxicity” and the neurologic toxicity [2] is given as “severe (nearly fatal) neurologic toxicity”.
In the case of Ivermectin, the “fraction of the lethal dose of ivermectin for Beagles that was lethal for Collies” value [3] is given as 1/200, the “ivermectin sensitivity (neurotoxicity)” value ([4]; Collies heterozygous (normal/mutant) or homozygous normal) is given as “not sensitive to ivermectin neurotoxicity” and the “ivermectin sensitivity (neurotoxicity)” value ([4]; Collies homozygous for the mdr1 deletion (mutant/mutant)) is given as “exhibit ivermectin sensitivity”.
